# Reference: US20110076258A1, “METHODS OF MODULATING T CELL- DEPENDENT IMMUNE RESPONSES” (Converge Biotech Inc., priority 2008, published 2011)
# Assays:
# [1] = test system: crt^−/− FLC; experiment: Graft-versus-host disease-like phenotype of crt^−/− fetal liver chimeras; format: in vivo, mouse
# Procedure: Phenotype of crt^−/− FLC before treatment and after daily intravenous treatment with PBS or 6 mM oATP (100 μl) for 2 weeks (see Example 16).
# Histopathological evaluation of skin biopsies executed in a blinded fashion. The graphs show selected examples of dramatic results seen with oATP treatment (see Example 16).
# Recombinase-deficient Balb/c mice were reconstituted with hematopoietic progenitors from fetal liver of calreticulin (crt)^−/− and +/+E13 embryos (FIG. 21). The phenotype of the resulting crt^−/− fetal liver chimera (FLC), which mimics graft-versus-host disease (GVHD) (see, e.g., Porcellini et al., J Exp Med 203:461-471 (2006)), was assessed at weeks 8, 10 and 12 after transfer and compared to the phenotype of the crt^+/+ FLC at week 12.
# crt^+/+ and crt^−/− FLCs received daily intravenous treatment with PBS or 6 mM oATP (100 μL) for two weeks.
# [2] = test system: naive CD4 T cells; experiment: T cell proliferation by CFSE dilution, plate-bound CD3 and CD28 mAbs; format: cell-based, mouse
# [3] = test system: T cells stimulated by anti-CD3 under Th17 skewing conditions; experiment: Th17 skewing conditions (TGFβ and IL-6), Foxp3 and RORγT expression; format: cell-based
# Procedure: Treatment with oATP at 100 μM inhibits Th17 differentiation and promotes Foxp3 expression. […] The absolute number of CD4^+CD25^high cells expressing Foxp3 by FACS analysis was increased (FIG. 12B). Moreover, the de-differentiation of sorted CD4^+CD25^high natural Treg cells to the Th17 lineage following stimulation (Koenen et al., Blood 112(6):2340-2352 (2008)) was prevented by oATP at 100 μM (FIG. 12C).
# [4] = test system: NZB/NZW F1 mice; experiment: Systemic lupus erythematosus / glomerulonephritis model; format: in vivo, mouse
# Procedure: Graph representing protein concentration in urine from NZB/NZW Fi mice treated either with PBS (control) or oATP. 25-week -old female mice received either PBS or oATP intravenously (3 mM in 100 μl, five days treatment, 2 days break) for 6 weeks (see Example 14). Ten animals received PBS and ten animals received oATP.
# Twenty-five week-old NZB/NZW F1 female mice were injected intravenously with either PBS or oATP (3 mM in 100 μl, five days treatment, 2 days break) for six weeks and examined for proteinuria (upper panel) and other indicated parameters (lower panels) (see Example 14). **: P<0.01; ***: P<0.001.
# Effector/memory (CD44^+CD62L^−) CD4^+ cells recovered from the spleen of 25 week-old NZB/NZW F1 female mice treated either with PBS or oATP (upper panel); IFN-γ and IL-4 secretion by CD4^+ effector/memory T cells stimulated with plate bound anti-CD3 and anti-CD28 antibodies for 48 h detected by ELISA (lower panels) (see Example 14). **: P<0.01; ***: P<0.001.
# Systemic lupus erythematosus (SLE), or its mouse model NZB/NZW F1 (Andrews et al., J. Exp. Med. 148:1198-1215 (1978)), is a chronic inflammatory disease characterized by polyclonal B cell activation with subsequent hypergammaglobulinemia and organ injury caused by immune complex deposits. Because CD4^+ T cells play a crucial role in the onset and propagation of the disease, we analyzed whether oATP treatment might ameliorate disease symptoms. Female NZB/NZW F1 mice at 25 weeks old (when most animals display proteinuria) received either PBS or oATP intravenously (3 mM in 100 μl, five days treatment, 2 days break) for 6 weeks. The proteinuria values were measured before the first treatment and at regular intervals after three weeks of oATP administration. […] Restimulation of sorted effector/memory T cells led to lower levels of IL-4 and IFNγ secretion in cells derived from oATP treated animals (18. 16, lower panels).
# [5] = Th17 skewing conditions, oATP 100 μM
smiles,measurement,setting,value
Nc1ncnc2c1ncn2[C@@H](C=O)O[C@@H](C=O)COP(=O)(O)OP(=O)(O)OP(=O)(O)O [oATP],histopathological evaluation of skin biopsies (inflammation and epidermal hyperplasia),[1]; blinded,histological improvement
same,blepharitis,[1]; daily i.v. 6 mM oATP (100 μL) for two weeks,dramatically ameliorated
same,T cell proliferation (CFSE dilution),[2],almost completely inhibited
same,absolute number of CD4^+CD25^high cells expressing Foxp3 (FACS),[3]; Th17 skewing conditions,increased
same,expression of Foxp3 (quantitative RT-PCR),[3]; [5],gradually increased
same,expression of RORγT (quantitative RT-PCR),[3]; [5],suppressing
same,Th17 differentiation,[3]; oATP 100 μM,inhibits
same,de-differentiation of sorted CD4^+CD25^high natural Treg cells to the Th17 lineage,[3]; oATP 100 μM,prevented
same,proteinuria levels,"[4]; 3 mM in 100 μl i.v., five days treatment, 2 days break, 6 weeks",remained similar to pre-treatment levels
same,IL-4 and IFNγ secretion of restimulated sorted effector/memory T cells,"[4]; anti-CD3 and anti-CD28, 48 h, ELISA",lower levels
same,"Histopathological scoring of kidneys: glomerular proliferation, lymphomonocytic infiltration and immune complex deposition","[4]; mouse, in vivo",significant reduction
same,number of effector/memory T cells in spleen and lymph nodes,"[4]; mouse, in vivo",significantly reduced
